# Legend:
# [1] = parameters: method as in PMID 23750919; conditions: read-out: KD, affinity toward lysine; cited from earlier work
# Survivin120 = target: T1, Survivin120 (Homo sapiens, UniProt O15392); experiment: Reverse ITC titration (tweezer into Survivin120); type: binding; conditions: tweezer added to constant Survivin
# T1 construct: the only published NMR structure originated from a truncated Survivin (aa 1-120) with improved solubility; GST with PreScission site (N); made in house; host or cells: Escherichia coli soluBL21
# T1 sequence (O15392 1-120): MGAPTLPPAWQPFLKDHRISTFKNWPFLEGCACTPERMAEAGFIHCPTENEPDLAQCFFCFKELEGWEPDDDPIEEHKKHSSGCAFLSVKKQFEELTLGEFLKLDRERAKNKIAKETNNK
# Method: ITC was performed with a MicroCal iTC200 from Malvern Panalytical in PBS, pH 7.4 at 25 °C with molecular tweezers in the cell and Survivin120 in the titration syringe. The protein was dialyzed overnight at 4 °C against the PBS buffer. Ligands were dissolved in the respective dialysis buffer. Then, 300 µM TW were titrated with 300 µM Survivin120 WT or 321 µM Survivin120 K90/103T. Then, 100 µM TW-ELTL, TW-ELTLGEFL, or TW-LFEEGLLT was titrated with 1.2 mM Survivin120 WT or 2.5 mM Survivin120 K90/103T. For reverse titrations, either 33.3 or 34.4 µM Survivin120 in the cell was titrated with 5 mM TW or TW-ELTL in the syringe, respectively. All titrations were performed in PBS, pH 7.4 at 25 °C. Then, 1.5 μL injections were used with 120 s spacing time between injections. The injection rate was set to 0.5 µL/s and the reference power was 5 µcal/s. ITC thermograms were fitted to a one set of sites model with the software Origin (v7.0552) provided with the instrument. Heat of dilution was subtracted as constant from each data point.
# Supplementary Figure SI8: Reverse ITC titrations. Titration of 33.3 μM (a) and 34,4 µM (b) Survivin120 in the cell with 5 mM unmodified tweezer TW (a) and TW-ELTL (b) in the syringe.
# All titrations (n = 1) were performed in PBS, pH 7.4 at 25 °C. Top row: raw heating power over time subtracted by control heating power of Survivin120 titration into PBS. […]
# Survivin–CRM1 complex = target: T2, Survivin–CRM1 complex (Homo sapiens, UniProt O15392); experiment: Pull-down with 293T lysate (Survivin142-HA), GST-CRM1 bait, RanQ69L, dGTP; type: binding; conditions: pull-down, tweezer 0.01 to 200 µM, 293T lysate
# T2 construct: expressed in transfected cells; host or cells: 293T cells (Survivin142-HA); E. coli soluBL21 (GST-CRM1, RanQ69L)
# T2 sequence (O15392 whole entry, one chain of several): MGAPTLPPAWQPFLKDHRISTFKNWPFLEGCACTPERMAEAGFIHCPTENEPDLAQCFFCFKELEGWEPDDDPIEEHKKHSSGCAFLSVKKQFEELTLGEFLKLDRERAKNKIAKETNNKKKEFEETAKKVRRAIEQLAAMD
# Method: We next investigated whether tweezers inhibit the Survivin–CRM1 complex formation in vitro. The effects of the unmodified and peptide-linked tweezers were analyzed via pull-down experiments with 293T lysates containing overexpressed HA-tagged Survivin142, recombinant GST-CRM1 as bait protein, and tweezers (Fig. 6). The parent and ELTL-linked tweezer required 10–50 µM to disrupt the Survivin–CRM1 complex. […] In order to provide experimental evidence for the sequence selectivity of the TW-ELTLGEFL ligand, a scrambled analog was synthesized and clicked to the tweezer, resulting in the hybrid molecule TW-LFEEGLLT (SI1, SI2, and SI10). […] Instead, the slight chemical shift perturbations might be due to the spatial proximity of the peptide moiety to the anchoring residue. All those results strongly indicate that the additional binding energy from the NES interface was lost due to scrambling and thus point toward specific recognition as the reason for increased selectivity and interference with the Survivin–CRM1 interaction. Of note, very high tweezer concentrations (100–200 µM) also weakened GST-CRM1 binding to GSH-Sepharose beads, most likely by low-affinity binding to the GST protein.
# All pull-down assays were performed at room temperature in pull-down buffer (PBS, pH 7.4, 1 mM DTT, 0.02 Triton X-100). GST fusion proteins were immobilized on 50 μL GSH-coated Sepharose 4B beads from GE Healthcare. The beads were prior equilibrated and blocked with 500 μL pull-down blocking buffer (PBS, pH 7.4, 1 (w/v) BSA, 1 mM DTT, 0.02 (v/v) Triton X-100) for 1 h to prevent unspecific binding.
# For analysis of the effective inhibitory tweezer concentration, 200 μg 293T lysate with overexpressed Survivin142-HA was preincubated without ligand or with different concentrations (10 nM to 200 μM) of unmodified tweezer TW, TW-ELTL, TW-ELTLGEFL, or TW-LFEEGLLT for 1 h and then mixed with 35 μg GST-CRM1, 55 μg RanQ69L, and 2 mM dGTP. GSH-beads were incubated with this protein mixture for 2 h under rotation. […]
# Samples of input and beads taken during pull-down experiments were ran on 12.5 SDS gels and transferred onto 0.2 µM PVDF membranes (Amersham Hybond P 0.2) using a PerfectBlue™ tank electro blotter (Peqlab) at 350 mA for 150 min. […] Chemiluminescence was detected and imaged using the Pierce ECL Plus Western Blotting Substrate kit (Thermo Fisher Scientific) and Chemidoc system (Bio-Rad) or film processor Cawomat 2000 IR (CAWO). Western blots were analyzed by densitometric analysis with ImageJ version 1.52p (U.S. National Institutes of Health), measuring the mean gray intensity of protein bands. […]
SMILES,Kd [1] [µM],tweezer molecules accommodated on the protein surface (kink at fold tweezer excess) (Survivin120),concentration required to disrupt the Survivin–CRM1 complex (Survivin–CRM1 complex) [µM]
"O=P(O)(O)Oc1c2c(c(OP(=O)(O)O)c3c1C1CC3c3cc4c(cc31)C1CC4c3ccccc31)C1CC2c2cc3c(cc21)C1CC3c2ccccc21 [TW, reference compound]",17,4–5,10 to 50
CC(C)C[C@H](NC(=O)[C@@H](NC(=O)[C@H](CC(C)C)NC(=O)[C@H](CCC(=O)O)NC(=O)Cn1cc(CCOP(=O)(O)Oc2c3c(c(OP(=O)(O)O)c4c2[C@H]2C[C@@H]4c4cc5c(cc42)[C@H]2C[C@@H]5c4ccccc42)[C@H]2C[C@@H]3c3cc4c(cc32)[C@H]2C[C@@H]4c3ccccc32)nn1)[C@@H](C)O)C(=O)O [TW-ELTL],–,4–5,10 to 50
